What was measured:
Conditions in all cases: incubation time: 72 h
CAL-120 [1] = experiment: normalised response (% of control), CellTiter-Glo; higher = more viable cells (100 = DMSO, 0 = benzethonium chloride kill control)
In short: (§1)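 Each entry is the normalised signal at a single concentration within a series. The series comprised 5 concentrations in 10-fold steps over a compound-specific 10,000-fold range, placed in 384-well plates into which breast cancer cell lines were seeded as 20 µl suspension and incubated 72 h. CellTox Green (485/520 nm) fluorescence and then CellTiter-Glo luminescence were read, with signals normalised per plate to 0.1 % DMSO (100) and a positive kill control (0).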

CAL-148 = experiment: as above
In short: as §1

CAL-51 [2] = experiment: as above
In short: as §1

CAL-85-1 = experiment: as above
In short: as §1

DU-4475 [3] = experiment: as above
In short: as §1

HCC1143 = experiment: as above
In short: as §1

HCC1599 [4] = experiment: as above
In short: as §1

HCC1937 [5] = experiment: as above
In short: as §1

HDQ-P1 [6] = experiment: as above
In short: as §1

Hs578T [7] = experiment: as above
In short: as §1

MDA-MB-231 = experiment: as above
In short: as §1

MDA-MB-436 [8] = experiment: as above
In short: as §1

MDA-MB-453 [9] = experiment: as above
In short: as §1

MFM-223 [10] = experiment: as above
In short: as §1

BT-474 = experiment: drug sensitivity score (DSS), CellTiter-Glo (DSS (AUC-based score)); higher = stronger drug effect (viability inhibition or cytotoxicity); extreme values may be limits of the assay
In short: (§2)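 The drug sensitivity score was computed from the area under the fitted dose-response curve. Breast cancer cell lines in 20 µl suspension went into 384-well plates holding compound at 5 concentrations (10-fold steps over a 10,000-fold, compound-specific range) for 72 h of incubation. CellTox Green fluorescence (485/520 nm) was read before CellTiter-Glo luminescence, the latter after 10 min at room temperature, and each plate was normalised to 0.1 % DMSO and a positive kill control.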

CAL-120 [11] = experiment: as above
In short: as §2

CAL-51 [12] = experiment: as above
In short: as §2

DU-4475 [13] = experiment: as above
In short: as §2

HCC1599 [14] = experiment: as above
In short: as §2

HCC1937 [15] = experiment: as above
In short: as §2

HDQ-P1 [16] = experiment: as above
In short: as §2

Hs578T [17] = experiment: as above
In short: as §2

MDA-MB-436 [18] = experiment: as above
In short: as §2

MDA-MB-453 [19] = experiment: as above
In short: as §2

MDA-MB-468 = experiment: as above
In short: as §2

MFM-223 [20] = experiment: as above
In short: as §2

SK-BR-3 = experiment: as above
In short: as §2

SMILES | normalised response (CAL-120 [1]) | normalised response (CAL-148) | normalised response (CAL-51 [2]) | normalised response (CAL-85-1) | normalised response (DU-4475 [3]) | normalised response (HCC1143) | normalised response (HCC1599 [4]) | normalised response (HCC1937 [5]) | normalised response (HDQ-P1 [6]) | normalised response (Hs578T [7]) | normalised response (MDA-MB-231) | normalised response (MDA-MB-436 [8]) | normalised response (MDA-MB-453 [9]) | normalised response (MFM-223 [10]) | drug sensitivity score (BT-474) | drug sensitivity score (CAL-120 [11]) | drug sensitivity score (CAL-51 [12]) | drug sensitivity score (DU-4475 [13]) | drug sensitivity score (HCC1599 [14]) | drug sensitivity score (HCC1937 [15]) | drug sensitivity score (HDQ-P1 [16]) | drug sensitivity score (Hs578T [17]) | drug sensitivity score (MDA-MB-436 [18]) | drug sensitivity score (MDA-MB-453 [19]) | drug sensitivity score (MDA-MB-468) | drug sensitivity score (MFM-223 [20]) | drug sensitivity score (SK-BR-3)
NC1(c2ccc(-c3nc4ccn5c(=O)[nH]nc5c4cc3-c3ccccc3)cc2)CCC1 [MK-2206] (1000 nM) | 92.5% | 59.7% | 84.2% | 86.1% | 87.3% | 84% | 72.6% | 86% | 81.4% | 87.2% | 86.1% | 98.2% | 36.6% | 46.9% | – | – | – | – | – | – | – | – | – | – | – | – | –
CCc1c(C(=O)C(N)=O)c2c(OCC(=O)O)cccc2n1Cc1ccccc1 [Varespladib] | – | – | – | – | – | – | – | – | – | – | – | – | – | – | 0 | 0 | 0 | 0 | 0 | 0 | 0 | 0 | 0 | 0 | 0 | 0 | 0
O=C(c1cc(Cc2n[nH]c(=O)c3ccccc23)ccc1F)N1CCN(C(=O)C2CC2)CC1 [Olaparib] (10000 nM) | 82.3% | 64.6% | 66.1% | 87.5% | 85.7% | 87.3% | 95.3% | 91.6% | 87.8% | 84.6% | 77.2% | 62.2% | 144% | 88.5% | – | – | – | – | – | – | – | – | – | – | – | – | –
C[C@@H](C(=O)O)c1ccc(-c2ccccc2)c(F)c1 [Tarenflurbil] (10000 nM) | 104% | 88.3% | 120% | 98.8% | 96.7% | 98.7% | 92.4% | 96.9% | 98.5% | 97.5% | 98.7% | 108% | 93.7% | 92.8% | – | – | – | – | – | – | – | – | – | – | – | – | –
COc1cc2c(N3CCN(C(=O)Nc4ccc(OC(C)C)cc4)CC3)ncnc2cc1OCCCN1CCCCC1 [Tandutinib] (1000 nM) | 106% | 97.8% | 117% | 98% | 97.7% | 95.7% | 106% | 100% | 99.1% | 92.3% | 106% | 109% | 99.1% | 98.8% | – | – | – | – | – | – | – | – | – | – | – | – | –

Source: the supplement of paper PMC4862054
